Data taken from paper PMC12069340 (Frontiers in Cellular and Infection Microbiology, 2025).
Structures can show the parent of a compound that is named as a salt.

Test system: not listed separately
Assay: in vitro
Details: human, Relative Viability (%)

Compound	viability at 20 µM [%]
NC[C@H](CC(=O)O)c1ccc(Cl)cc1 [(R)-baclofen]	112
CCCC(=O)Nc1ccc(OCC(O)CNC(C)C)c(C(C)=O)c1 (centres unmarked) [Acebutolol HCl]	106
CC(=O)OCC[N+](C)(C)C [Acetylcholine Chloride]	104
O=C(O[C@H]1C[N+]2(CCCOc3ccccc3)CCC1CC2)C(O)(c1cccs1)c1cccs1 [Aclidinium Bromide]	194
COc1ccc2cccc(CCNC(C)=O)c2c1 [Agomelatine]	89.1
CN1CCC(=C2c3ccccc3CCn3c(C=O)cnc32)CC1 [Alcaftadine]	188
COc1cc2nc(N(C)CCCNC(=O)C3CCCO3)nc(N)c2cc1OC (centres unmarked) [Alfuzosin HCl]	110
NC12CC3CC(CC(C3)C1)C2 [Amantadine HCl]	110
CCN1CCCC1CNC(=O)c1cc(S(=O)(=O)CC)c(N)cc1OC (centres unmarked) [Amisulpride]	89.7
CN1CC2c3ccccc3Oc3ccc(Cl)cc3C2C1 (centres unmarked) [Asenapine]	87.1
CCC1(c2cnc[nH]2)Cc2ccccc2C1 [Atipamezole]	118
CC(C)NCC(O)COc1ccc(CCOCC2CC2)cc1 (centres unmarked) [Betaxolol]	115
CC(C[N+](C)(C)C)OC(N)=O (centres unmarked) [Bethanechol chloride]	103
O=c1ccc2ccc(OCCCCN3CCN(c4cccc5sccc45)CC3)cc2[nH]1 [Brexpiprazole]	97.2
CN(C)CCC(c1ccc(Cl)cc1)c1ccccn1 (centres unmarked) [Chlorpheniramine Maleate]	102
CN(C)CCCN1c2ccccc2Sc2ccc(Cl)cc21 [Chlorpromazine HCl]	115
COc1ccc(C[C@@H]2c3cc(OC)c(OC)cc3CC[N@+]2(C)CCC(=O)OCCCCCOC(=O)CC[N@@+]2(C)CCc3cc(OC)c(OC)cc3[C@H]2Cc2ccc(OC)c(OC)c2)cc1OC [Cisatracurium Besylate]	106
CN1CCC[C@@H]1CCO[C@](C)(c1ccccc1)c1ccc(Cl)cc1 [Clemastine Fumarate]	88.5
Clc1cccc(Cl)c1N=C1NCCN1 [Clonidine HCl]	99.2

Compound	viability at 20 µM [%]
CN(C)CC(c1ccc(O)cc1)C1(O)CCCCC1 (centres unmarked) [Desvenlafaxine Succinate]	98.8
Cc1cccc(Cc2c[nH]cn2)c1C [Detomidine HCl]	109
Cc1cccc([C@H](C)c2cnc[nH]2)c1C [Dexmedetomidine HCl (Precedex), Dexmedetomidine HCl]	120
O=C1c2c(O)cc(O)cc2O[C@H](c2cc(O)c(O)c(O)c2)[C@H]1O [Dihydromyricetin]	95.3
C[N+]1(C)CCC(=C(c2ccccc2)c2ccccc2)CC1 [Diphemanil Methylsulfate]	98.2
OC(CCCN1CCCCC1)(c1ccccc1)c1ccccc1 [Diphenidol HCl]	125
CC(C)(C)c1ccc(C(=O)CCCN2CCC(OC(c3ccccc3)c3ccccc3)CC2)cc1 [Ebastine]	105
CC(C)C(=O)Oc1ccc(CO)cc1[C@H](CCN(C(C)C)C(C)C)c1ccccc1 [Fesoterodine Fumarate]	114
Cc1c(-c2ccccc2)oc2c(C(=O)OCCN3CCCCC3)cccc2c1=O [Flavoxate HCl]	118
C[C@@H]1C(=O)O[C@H]2C[C@@]34[C@H]5C[C@@H](C(C)(C)C)[C@]36[C@@H](OC(=O)[C@@H]6O)O[C@@]4(C(=O)O5)[C@]21O [Ginkgolide A]	109
N=C(N)NC(=O)Cc1c(Cl)cccc1Cl [Guanfacine Hydrochloride]	102
C[N+](C)(C)CCCCCC[N+](C)(C)C [Hexamethonium Bromide]	104
NCCc1c[nH]cn1 [Histamine Phosphate]	98.9
CN1CCC(=C2c3ccccc3CC(=O)c3sccc32)CC1 [Ketotifen Fumarate]	108
CC(CCc1ccccc1)NCC(O)c1ccc(O)c(C(N)=O)c1 (centres unmarked) [Labetalol HCl]	101
OC[C@@H](O)CN1CCN(c2ccccc2)CC1 [Levodropropizine]	104
Cc1ccccc1C(OCCN(C)C)c1ccccc1 (centres unmarked) [Orphenadrine Citrate]	106
CN[C@H]1CC[C@@H](c2ccc(Cl)c(Cl)c2)c2ccccc21 [Sertraline HCl]	124

Test system: A/PuertoRico/8/1934 (H1N1) virus
Assay: microbe, parasite or virus in culture
Type: cell-based, influenza A virus
Details: 20 µM

Compound	NA Inhibition (%)
Cc1cccc([C@H](C)c2cnc[nH]2)c1C [Dexmedetomidine HCl (Precedex), Dexmedetomidine HCl]	-18.5%
NCCc1c[nH]cn1 [Histamine Phosphate]	-2.9
COc1cc(OC)c(NC(=O)Nc2cc(C)on2)cc1Cl [PNU-120596]	-38.3%
CC(C)c1cc(-c2ccc(F)c3ccccc23)nc(N)n1 [RS-127445]	20.3%
Cc1cncc(CN2CCC(=C3c4ccc(Cl)cc4CCc4cccnc43)CC2)c1.O=C(O)/C=C/C(=O)O [Rupatadine Fumarate]	22.5%
COc1ccc(NS(=O)(=O)c2sc3ccc(Cl)cc3c2C)cc1N1CCNCC1.Cl [SB271046 HCl]	18.8%
CN1[C@@H]2CC(O)C[C@H]1[C@@H]1O[C@@H]12 (some centres unmarked) [Scopine]	-19.4%
CN1c2ccccc2C(NCCCCCCC(=O)[O-])c2ccc(Cl)cc2S1(=O)=O.[Na+] (centres unmarked) [Tianeptine sodium]	4.5%
CCCCOc1ccc(C(=O)Nc2ccc(F)cc2F)cc1 [VU 0357121]	29.7%
O=C(Nc1cccc(Cl)c1)c1ccccn1 [VU 0364770]	28.5%
CN1CCN(c2nc3ccccc3nc2Cl)CC1 [VUF 10166]	7.6%
COc1ccccc1N1CCN(CCN(C(=O)C2CCCCC2)c2ccccn2)CC1.O=C(O)/C=C\C(=O)O [WAY-100635 Maleate]	9.1%
(-)-MK 801 Maleate	26.1%
L-Adrenaline	-38.4

Same assay, conditions: Influenza A virus, H1N1, U-937, 48 h, read-out: NA Inhibition (%)

Compound	inhibition at 20 µM [%]
CCCC(=O)Nc1ccc(OCC(O)CNC(C)C)c(C(C)=O)c1 (centres unmarked) [Acebutolol HCl]	-13.9
COc1cc2nc(N(C)CCCNC(=O)C3CCCO3)nc(N)c2cc1OC (centres unmarked) [Alfuzosin HCl]	-12.3
CCC1(c2cnc[nH]2)Cc2ccccc2C1 [Atipamezole]	38.2
CC(C)NCC(O)COc1ccc(CCOCC2CC2)cc1 (centres unmarked) [Betaxolol]	6.7
COc1ccc(C[C@@H]2c3cc(OC)c(OC)cc3CC[N@+]2(C)CCC(=O)OCCCCCOC(=O)CC[N@@+]2(C)CCc3cc(OC)c(OC)cc3[C@H]2Cc2ccc(OC)c(OC)c2)cc1OC [Cisatracurium Besylate]	27.9
Clc1cccc(Cl)c1N=C1NCCN1 [Clonidine HCl]	-24.1
Cc1cccc(Cc2c[nH]cn2)c1C [Detomidine HCl]	31.2
CC(CCc1ccccc1)NCC(O)c1ccc(O)c(C(N)=O)c1 (centres unmarked) [Labetalol HCl]	-17.2
CNCCCC12CCC(c3ccccc31)c1ccccc12 [Maprotiline HCl]	-23.2
C=CCN1CC[C@]23c4c5ccc(O)c4O[C@H]2C(=O)CC[C@@]3(O)[C@H]1C5 [Naloxone HCl]	25.4
CNC[C@H](O)c1cccc(O)c1 [Phenylephrine HCl]	4.9
COCCCN1CCC(NC(=O)c2cc(Cl)c(N)c3c2OCC3)CC1 [Prucalopride]	20.7
CC(=O)SCC(Cc1ccccc1)C(=O)NCC(=O)OCc1ccccc1 (centres unmarked) [Racecadotril]	-29.5
CN1[C@@H]2C[C@@H](OC(=O)[C@H](CO)c3ccccc3)C[C@H]1[C@@H]1O[C@@H]12 [Scopolamine HBr]	-0.4
Cc1ccc(O)c([C@H](CCN(C(C)C)C(C)C)c2ccccc2)c1 [Tolterodine tartrate]	-12
O=c1n(CCCN2CCN(c3cccc(Cl)c3)CC2)nc2ccccn12 [Trazodone HCl]	-9.8
COc1cc(NC(=O)c2ccccn2)ccc1Cl [VU 0361737]	23.5

Same assay, conditions: Influenza A virus, H1N1, U-937, 48 h; read-out: NA Inhibition (%)

Compound	inhibition at 20 µM [%]
NC[C@H](CC(=O)O)c1ccc(Cl)cc1 [(R)-baclofen]	46.4
CC(=O)OCC[N+](C)(C)C [Acetylcholine Chloride]	-5.4
O=C(O[C@H]1C[N+]2(CCCOc3ccccc3)CCC1CC2)C(O)(c1cccs1)c1cccs1 [Aclidinium Bromide]	13.8
COc1ccc2cccc(CCNC(C)=O)c2c1 [Agomelatine]	18.4
CN1CCC(=C2c3ccccc3CCn3c(C=O)cnc32)CC1 [Alcaftadine]	-0.9
NC12CC3CC(CC(C3)C1)C2 [Amantadine HCl]	69.2
CCN1CCCC1CNC(=O)c1cc(S(=O)(=O)CC)c(N)cc1OC (centres unmarked) [Amisulpride]	6.2
CC(C[N+](C)(C)C)OC(N)=O (centres unmarked) [Bethanechol chloride]	2.2
O=c1ccc2ccc(OCCCCN3CCN(c4cccc5sccc45)CC3)cc2[nH]1 [Brexpiprazole]	54
CN(C)CCC(c1ccc(Cl)cc1)c1ccccn1 (centres unmarked) [Chlorpheniramine Maleate]	1
CN(C)CCCN1c2ccccc2Sc2ccc(Cl)cc21 [Chlorpromazine HCl]	53.3
CN(C)CC(c1ccc(O)cc1)C1(O)CCCCC1 (centres unmarked) [Desvenlafaxine Succinate]	11
O=C1c2c(O)cc(O)cc2O[C@H](c2cc(O)c(O)c(O)c2)[C@H]1O [Dihydromyricetin]	9.3
C[N+]1(C)CCC(=C(c2ccccc2)c2ccccc2)CC1 [Diphemanil Methylsulfate]	-0.6
OC(CCCN1CCCCC1)(c1ccccc1)c1ccccc1 [Diphenidol HCl]	32.3
CC(C)C(=O)Oc1ccc(CO)cc1[C@H](CCN(C(C)C)C(C)C)c1ccccc1 [Fesoterodine Fumarate]	-27.7
Cc1c(-c2ccccc2)oc2c(C(=O)OCCN3CCCCC3)cccc2c1=O [Flavoxate HCl]	8.2
C[C@@H]1C(=O)O[C@H]2C[C@@]34[C@H]5C[C@@H](C(C)(C)C)[C@]36[C@@H](OC(=O)[C@@H]6O)O[C@@]4(C(=O)O5)[C@]21O [Ginkgolide A]	23.3
N=C(N)NC(=O)Cc1c(Cl)cccc1Cl [Guanfacine Hydrochloride]	11
C[N+](C)(C)CCCCCC[N+](C)(C)C [Hexamethonium Bromide]	-10.2
CN1CCC(=C2c3ccccc3CC(=O)c3sccc32)CC1 [Ketotifen Fumarate]	-4.7
OC[C@@H](O)CN1CCN(c2ccccc2)CC1 [Levodropropizine]	35.7
c1ccc2c(CC3=NCCN3)cccc2c1 [Naphazoline HCl]	-18.7
O=C(O)c1cccnc1Nc1cccc(C(F)(F)F)c1 [Niflumic acid]	23.7
CCCCCCCCOc1ccccc1C(=O)Nc1ccc(C(=O)OCC[N+](C)(CC)CC)cc1 [Otilonium Bromide]	-2.3
CC(COc1ccccc1)N(CCCl)Cc1ccccc1 (centres unmarked) [Phenoxybenzamine HCl]	95.4
CC(NCCc1ccc(O)cc1)C(O)c1ccc(O)cc1 (centres unmarked) [Ritodrine HCl]	-20.6
O=S(=O)(c1ccccc1)c1cnc2c(N3CCNCC3)cccc2c1 [SB742457]	16.8
C[N+]1(C)[C@@H]2C[C@@H](OC(=O)C(O)(c3cccs3)c3cccs3)C[C@H]1[C@@H]1O[C@@H]12 [Tiotropium Bromide hydrate]	-34.7
Cc1cccc(C)c1N=C1NCCCS1 [Xylazine HCl]	-20
